From patent US20230067159A1, “ROR-GAMMA-T INHIBITOR, PREPARATION METHOD THEREOF AND USE THEREOF” (priority 2020, published 2023)

How the values were obtained:
[1] = target: T1, RORγ (Homo sapiens, UniProt P51449); test: Fluorescence resonance energy transfer (FRET) test, B-RORγ LBD / Biotin-SRC1; format: biochemical
T1 construct: The concentration of B-RORγ LBD was 40 nM
T1 sequence (P51449 269-508 limits assumed): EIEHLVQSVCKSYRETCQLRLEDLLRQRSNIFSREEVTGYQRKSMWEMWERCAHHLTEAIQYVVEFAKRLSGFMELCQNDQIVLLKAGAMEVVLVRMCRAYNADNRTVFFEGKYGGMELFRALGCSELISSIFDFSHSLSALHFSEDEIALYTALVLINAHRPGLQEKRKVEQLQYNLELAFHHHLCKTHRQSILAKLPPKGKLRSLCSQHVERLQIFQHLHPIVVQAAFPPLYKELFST
Procedure: Biological Example 1 Fluorescence Resonance Energy Transfer (FRET) Test
(1) Preparation of RORγ Test Buffer and 10 mM of DTT
100 mL of 1× Basic test buffer (HEPES (pH 7.4), 100 mM NaCl, 0.01% BSA) was prepared, and 154.25 mg of DTT was added. The mixture was well mixed.
(2) Preparation of Compound with Gradient Concentration
a. Standard compound was prepared: Standard compound was diluted with 100% DMSO to 2.5 mM, then diluted 3-fold with 11 serial dilutions to a final concentration of […];
b. Test compound was prepared referring to the standard compound.
(3) Preparation of 1× Protein Solution Mixture
(§1) a. Preparation of the desired amount of 2× B-RORγ LBD/SA-APC protein mixture: The concentration of B-RORγ LBD was 40 nM, and the concentration of SA-APC was 20 nM. They were mixed by gently inversion, and incubated at room temperature for 15 minutes. Then 400 nM of biotin was added. The mixture was mixed by gently inversion, and incubated at room temperature for 10 minutes;
as §1, with “b.” for “a.”, “Biotin-SRC1/SA-eu” for “B-RORγ LBD/SA-APC”, “Bioin-SRC1” for “B-RORγ LBD”, “SA-eu” for “SA-APC”, “200” for “400”
c. The protein mixtures prepared in step a and step b were mixed at a ratio of 1:1, and incubated at room temperature for 5 minutes;
d. 25 μL of the mixture from step c was added to the 384-well plate containing the test compound;
e. The mixture was centrifuged at 1000 rpm for one minute;
f. The mixture was incubated for 1 hour at room temperature.
(4) Data Collection and Calculation
After incubation at room temperature for 1 hour, the fluorescence values at 665 nm and 615 nm were measured with an EnVision plate reader, and the inhibition rate was calculated.
Inhibition rate %)=[(X−Min)/(Max−Min)]×100%
X is the fluorescence value ratio of “665/615” of the test compound; Min is the average value of “665/615” of the DMSO blank control; Max is the average value of “665/615” of the 10 μM SRC.

[2] = Pharmacokinetic evaluation I in ICR mice; format: in vivo; conditions: mouse, plasma, po; for bioavailability: p.o. 5 mg/kg, i.v. 1 mg/kg, read-out: Oral bioavailability (F); for AUC(0-t) / Cmax / half-life: 5 mg/kg
Procedure: Biological Example 2 Pharmacokinetic Evaluation I
ICR mice were weighed after an overnight fast for 15 h, and then randomly divided into groups according to body weight. The test compounds were formulated in a vehicle of 10% DMSO 10% kolliphor HS15^+ 80% Saline. For the test group administered intravenously (indicated by i.v.), the test animals were administered a dose of 1 mg/kg; for the test group administered by oral administration (indicated by p.o.), the test animals were administered a dose of 5 mg/kg. Then, at time points 0, 0.083 (intravenous injection group only), 0.25, 0.5, 1.0, 2.0, 5.0, 7.0 and 24 h, venous blood (approximately 0.2 mL) was collected and placed in an EDTAK2 anticoagulation tube, then centrifuged at 11,000 rpm for 2 min. Plasma was collected and stored at −20° C. or −70° C. until LC/MS/MS analysis. The drug concentration in plasma was measured at each time point, and the pharmacokinetic parameters were calculated according to the drug concentration-time curve.

[3] = Stability in human liver microsomes; format: in vitro ADME; conditions: pH 7.4; for half-life at 1.5 μM: human liver microsomes 0.5 mg protein/mL, compound 1.5 μM, NADPH, 37° C., read-out: Half-life t1/2; for CLint scaled at 1.5 μM: human liver microsomes, inferred in vivo intrinsic hepatic clearance rate
Procedure: (§2) Biological Example 4 Stability of the Compounds of the Present Invention in Human and Rat Liver Microsomes
(§3) Human or rat liver microsomes were incubated in double wells in polypropylene tubes. A typical incubation mixture included human or rat liver microsomes (final concentration: 0.5 mg protein/mL), target compound (final concentration: 1.5 μM), and K-phosphate buffered solution (containing […] EDTA, 100 mM, pH=7.4) in a total volume of 30 μL. Compounds were dissolved in DMSO and diluted with K-phosphate buffered solution to give a final working solution concentration of 30 μM. After 10 min of pre-incubation, 25 μL of test compound or positive control solution was transferred to the microsomal solution. The mixture was mixed well and 30 μL of the mixture was immediately pipetted, ice-cold acetonitrile was added, then 15 μL of NADPH was added as T0. 15 μL of NADPH (final concentration: 2 mM) was added to 30 μL of the mixture for the enzymatic reaction, and the entire experiment was carried out in an incubation tube at 37° C. At various time points (0, 20 and 60 min), the reaction was stopped by adding 150 μL of acetonitrile (with internal standard). The protein was removed by centrifugation at 4000 rpm for 10 min, and the supernatant was collected and analyzed by LC-MS/MS.
(§4) For each reaction, the concentration of compound in the incubation of human or rat liver microsomes was plotted (expressed as a percentage) as a percentage relative to the zero time point to infer in vitro metabolic half-life and in vivo intrinsic hepatic clearance rate.

[4] = Stability in rat liver microsomes; format: in vitro ADME; conditions: pH 7.4; for half-life at 1.5 μM: rat liver microsomes 0.5 mg protein/mL, compound 1.5 μM, NADPH, 37° C., read-out: Half-life t1/2; for CLint scaled at 1.5 μM: rat liver microsomes, inferred in vivo intrinsic hepatic clearance rate
Procedure: as §2, §3, §4

Row | Structure (SMILES) | IC50 [1] | bioavailability [2] | AUC(0-t) [2] | Cmax [2] | half-life [2] | half-life at 1.5 μM [3] | CLint scaled at 1.5 μM [3] | half-life at 1.5 μM [4] | CLint scaled at 1.5 μM [4]
1 | CCS(=O)(=O)c1ccc([C@H](CO)NC(=O)c2ccc(N3C[C@@H](Oc4ccc(C(F)(F)F)cc4)C[C@H]3COC(F)F)cc2)cc1 [Example 39] | 3 nM | 35% | 11.4 µM·h | 1500 nM | 3.9 h | 3.53 h | 8.2 mL/min/kg | 5.62 h | 7.4 mL/min/kg
2 | CCS(=O)(=O)c1ccc([C@H](CO)NC(=O)c2ccc(N3C[C@@H](Oc4ccc(C(F)(F)F)cc4)C[C@H]3COC(F)(F)F)cc2)cc1 [Example 48, N—((R)-1-(4-(ethylsulfonyl)phenyl)-2-hydroxyethyl)-4-((2S,4S)-2-((trifluoromethoxy)methyl)-4-(4-(trifluoromethyl)phenoxy)pyrrolidin-1-yl)benzamide] | 6.4 nM | 50% | 20.9 µM·h | 1700 nM | 11.4 h | 10 h | 2.9 mL/min/kg |  | 
3 | CCS(=O)(=O)c1ccc([C@H](CCO)NC(=O)c2ccc(N3C[C@@H](Oc4ccc(C(F)(F)F)cc4)C[C@H]3COC(F)F)cc2)cc1 [Example 91] |  | 42% | 21 µM·h | 1900 nM | 7.6 h | 6.93 h | 4.2 mL/min/kg | 2.37 h | 38 mL/min/kg
4 | CCS(=O)(=O)c1ccc([C@H](CCO)NC(=O)c2ccc(N3C[C@@H](Oc4ccc(OC(F)(F)F)cn4)C[C@H]3COC(F)F)cc2)cc1 [Example 108] | 6 nM |  |  |  |  |  |  |  | 
5 | [2H]C([2H])([2H])OC[C@@H]1C[C@H](Oc2ccc(C(F)(F)F)cc2)CN1c1ccc(C(=O)NCc2ccc(S(=O)(=O)CC)cc2)cc1 [Example 109, N-(4-(ethylsulfonyl)benzyl)-4-((2S,4S)-2-(3,3,3-d3-methoxymethyl)-4-(4-(trifluoromethyl)phenoxy)pyrrolidin-1-yl)benzamide] | 6.4 nM |  |  |  |  |  |  |  | 
6 | CCS(=O)(=O)c1ccc(CNC(=O)c2ccc(N3C[C@@H](Oc4ccc(OC(F)(F)F)cn4)C[C@H]3COC(F)F)nc2)cc1 [Example 110] | 11 nM |  |  |  |  |  |  |  | 
7 | CCS(=O)(=O)c1ccc(CNC(=O)c2cnc(N3C[C@@H](Oc4ccc(OC(F)(F)F)cn4)C[C@H]3COC(F)F)c(F)c2)cc1 [Example 111] | 5 nM |  |  |  |  |  |  |  | 
8 | CCS(=O)(=O)c1ccc(CNC(=O)c2ccc(N3C[C@@H](Oc4ccc(OC(F)(F)F)cn4)C[C@H]3COC(F)F)cc2)nc1 [Example 112] | 8 nM |  |  |  |  |  |  |  | 
9 | CCS(=O)(=O)c1ccc(CNC(=O)c2cnc(N3C[C@@H](Oc4ccc(Cl)cn4)C[C@H]3COC(F)F)c(F)c2)nc1 [Example 113, 6-((2S,4S)-4-((5-chloropyridin-2-yl)oxy)-2-((difluoromethoxy)methyl)pyrrolidin-1-yl)-N-((5-(ethylsulfonyl)pyridin-2-yl)methyl)-5-fluoronicotinamide] | 6.2 nM |  |  |  |  |  |  |  | 
10 | CCS(=O)(=O)c1ccc([C@H](CCO)NC(=O)c2ccc(N3C[C@H](Oc4ccc(OC(F)(F)F)cc4)C[C@H]3COC(F)F)nc2)cc1 [Example 115] | 13 nM |  |  |  |  |  |  |  | 
11 | CCS(=O)(=O)c1ccc([C@H](CCO)NC(=O)c2cnc(N3C[C@@H](Oc4ccc(OC(F)(F)F)cc4)C[C@H]3COC(F)F)c(F)c2)cc1 [Example 116] | 10 nM |  |  |  |  |  |  |  | 
12 | CCS(=O)(=O)c1ccc([C@H](CCO)NC(=O)c2ccc(N3C[C@@H](Oc4ccc(OC(F)(F)F)cc4)C[C@H]3CF)cc2)cc1 [Example 117, N—((S)-1-(4-(ethylsulfonyl)phenyl)-3-hydroxypropyl)-4-((2S,4S)-2-(fluoromethyl)-4-(4-(trifluoromethoxy)phenoxy)pyrrolidin-1-yl)benzamide] | 14 nM |  |  |  |  |  |  | 6.12 h | 3.8 mL/min/kg
13 | CCS(=O)(=O)c1ccc([C@H](CCO)NC(=O)c2ccc(N3C[C@@H](Oc4ccc(OC(F)(F)F)cc4)C[C@H]3COC(F)F)cc2)cc1 [Example 119, 4-((2S,4S)-2-((difluoromethoxy)methyl)-4-(4-(trifluoromethoxy)phenoxy)pyrrolidin-1-yl)-N—((S)-1-(4-(ethylsulfonyl)phenyl)-3-hydroxypropyl)benzamide] | 9.2 nM | 71% | 28.5 µM·h | 2380 nM | 6.5 h | 5.25 h | 4.4 mL/min/kg | 7.17 h | 3.2 mL/min/kg
14 | CCS(=O)(=O)c1ccc([C@H](CCOP(=O)(O)O)NC(=O)c2ccc(N3C[C@@H](Oc4ccc(OC(F)(F)F)cc4)C[C@H]3COC(F)F)cc2)cc1 [Example 125, sodium (S)-3-(4-((2S,4S)-2-((difluoromethoxy)methyl)-4-(4-(trifluoromethoxy)phenoxy)pyrrolidin-1-yl)benzamino)-3-(4-(ethylsulfonyl)phenyl)propyl phosphate] | 140 nM |  |  |  |  |  |  |  | 
